Measurements: patent US10377783B2, “Methods and compounds for enhancing contrast in magnetic resonance imaging (MRI)” (priority 2015, dated 2019)

System: male rats (Sprague Dawley Crl:SD)
Assay: In vivo MRI imaging of 1, predominantly T1-weighted RARE fast-spin-echo scans
Design: species or system rat
Conditions: 0.02 mmol/kg iv; for MRI signal intensity, bladder: baseline (−10 min) 414.3; for MRI signal intensity, skeletal muscle: baseline (−10 min) 432.1; for MRI signal intensity, renal pelvis: baseline (−10 min) 465.7; for MRI signal intensity, renal medulla: baseline (−10 min) 480.8; for MRI signal intensity, liver: baseline (−10 min) 498.6; for MRI signal intensity, renal cortex: baseline (−10 min) 579.1
Procedure: Compound 1 (aq., 12.5 mM) was injected intravenously into 2 male rats (Sprague Dawley Crl:SD, 312-338 g) at a dosage of 0.02 mmol/kg following anaesthesia with 5% isoflurane. Compound 2 (aq., 6.25 mM) was injected intravenously into 1 male rat (Sprague Dawley Crl:SD, 349 g) at a dosage of 0.01 mmol/kg following anaesthesia with 5% isoflurane. Compound 6 (aq., 6.25 mM) was injected intravenously into 1 male rat (Sprague Dawley Crl:SD, 341 g) at a dosage of 0.01 mmol/kg following anaesthesia with 5% isoflurane. Anesthesia was maintained at 2-2.5% isoflurane through a nose cone for the duration of the scans. Fast-spin-echo images were collected for 45 mins. immediately post-injection. For compound 1, the DT1-weighted RARE (Rapid Acquisition Relaxation Enhancement) scans were acquired with an echo time of 10 ms, and a repetition time=respiratory cycle duration (˜1100 ms). Both T1- and T2-weighted scans were collected on compounds 2 and 6.
The in vivo contrast potential of compounds 1, 2 and 6 were studied via the collection of fast-spin-echo images for 30-45 minutes immediately following injection of an aqueous solution of each complex. The dosage chosen for 1 was 0.02 mmol/kg (c=[…]) while the dosage chosen for 2 and 6 was 0.01 mmol/kg (c=6.25 mM). Predominantly T1-weighted scans with some T2-weighting were performed on two rats injected with 1.

[1] = percentage of the initial intensity, first 45 min

CC1=NCCNCCNCCN=C(C)c2cccc1n2.O.O.[Cl-].[Cl-].[Mn+2] [Compound 1, [MnL1Cl2].2H2O]
excretion (summary): rapid excretion | time to appearance in the bladder: ≤ 5 min | MRI signal intensity, bladder (2 min after injection): 454.3 arbitrary units of voxel intensity | MRI signal intensity, skeletal muscle (2 min after injection): 358.5 arbitrary units of voxel intensity | MRI signal intensity, renal pelvis (2 min after injection): 881.1 arbitrary units of voxel intensity | MRI signal intensity, renal medulla (2 min after injection): 608.9 arbitrary units of voxel intensity | MRI signal intensity, liver (2 min after injection): 458.8 arbitrary units of voxel intensity | MRI signal intensity, renal cortex (2 min after injection): 635.2 arbitrary units of voxel intensity | MRI signal intensity, bladder (10 min after injection): 1093.1 arbitrary units of voxel intensity | MRI signal intensity, skeletal muscle (10 min after injection): 354.3 arbitrary units of voxel intensity | MRI signal intensity, renal pelvis (10 min after injection): 920.7 arbitrary units of voxel intensity | MRI signal intensity, renal medulla (10 min after injection): 561.8 arbitrary units of voxel intensity | MRI signal intensity, liver (10 min after injection): 436.2 arbitrary units of voxel intensity | MRI signal intensity, renal cortex (10 min after injection): 683.4 arbitrary units of voxel intensity | MRI signal intensity, bladder (15 min after injection): 1147.9 arbitrary units of voxel intensity | MRI signal intensity, skeletal muscle (15 min after injection): 346.5 arbitrary units of voxel intensity | MRI signal intensity, renal pelvis (15 min after injection): 806.3 arbitrary units of voxel intensity | MRI signal intensity, renal medulla (15 min after injection): 524.4 arbitrary units of voxel intensity | MRI signal intensity, liver (15 min after injection): 410.2 arbitrary units of voxel intensity | MRI signal intensity, renal cortex (15 min after injection): 660.3 arbitrary units of voxel intensity | MRI signal intensity, bladder (20 min after injection): 1046.4 arbitrary units of voxel intensity | MRI signal intensity, skeletal muscle (20 min after injection): 337.5 arbitrary units of voxel intensity | MRI signal intensity, renal pelvis (20 min after injection): 733.9 arbitrary units of voxel intensity | MRI signal intensity, renal medulla (20 min after injection): 502.9 arbitrary units of voxel intensity | MRI signal intensity, liver (20 min after injection): 424.5 arbitrary units of voxel intensity | MRI signal intensity, renal cortex (20 min after injection): 717.0 arbitrary units of voxel intensity | MRI signal intensity, bladder (30 min after injection): 970.1 arbitrary units of voxel intensity | MRI signal intensity, skeletal muscle (30 min after injection): 330.6 arbitrary units of voxel intensity | MRI signal intensity, renal pelvis (30 min after injection): 704.7 arbitrary units of voxel intensity | MRI signal intensity, renal medulla (30 min after injection): 512.6 arbitrary units of voxel intensity | MRI signal intensity, liver (30 min after injection): 398.0 arbitrary units of voxel intensity | MRI signal intensity, renal cortex (30 min after injection): 775.4 arbitrary units of voxel intensity | MRI signal intensity, bladder (45 min after injection): 1030.1 arbitrary units of voxel intensity | MRI signal intensity, skeletal muscle (45 min after injection): 351.0 arbitrary units of voxel intensity | MRI signal intensity, renal pelvis (45 min after injection): 666.1 arbitrary units of voxel intensity | MRI signal intensity, renal medulla (45 min after injection): 520.6 arbitrary units of voxel intensity | MRI signal intensity, liver (45 min after injection): 369.8 arbitrary units of voxel intensity | MRI signal intensity, renal cortex (45 min after injection): 804.1 arbitrary units of voxel intensity | liver signal (first 45 minutes): gradual liver hypoenhancement | renal cortical signal (first 45 minutes): slow increase in the renal cortical signal | Max. intensity change, bladder [1]: 177% | Max. intensity change, liver [1]: −26% | Max. intensity change, renal cortex [1]: 39% | Max. intensity change, renal medulla [1]: 27% | Max. intensity change, renal pelvis [1]: 98% | Max. intensity change, skeletal muscle [1]: −23% | retention in tissues or organs (scans 3 hours post-injection): no evidence of compound 1 being retained by any tissue or organ
